Experimental data from patent publication US11344510B2, “Arylcyclohexylamine derivatives and their use in the treatment of psychiatric disorders” (Gilgamesh Pharmaceuticals, Inc., priority 2019, dated 2022).
Entries after “also recorded” stand apart in the source; their conditions may differ.

Tests used:
[1] = HLM stability (High Activity); assay type: in vitro ADME; settings: both sexes, human, liver microsomes, pH 7.4, Condition 2 (High Activity), 1.0 mg protein/mL
Summary of the method: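 Pooled male and female human liver microsomes, 1.0 mg protein/mL, in 100 mM PBS pH 7.4 with NADPH-regenerating system; compound 1 μM at 37° C, five time points over 60 min. Parent remaining by LC-MS/MS; kel, t1/2 and Clint from linear regression of ln(AUC) versus time.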

[2] = target: T1, serotonin transporter (SERT) (Homo sapiens, UniProt P31645); assay: Fluorescent substrate uptake inhibition, SERT; assay type: cell-based; settings: 10 μM, HEK293 cells expressing SERT
T1 construct: expressed in transfected cells; host or cells: HEK293

[3] = target: T2, vesicular monoamine transporter 2 (VMAT2) (Homo sapiens, UniProt Q05940); assay: Fluorescent substrate uptake inhibition, VMAT2; assay type: cell-based; settings: 10 μM, transfected cells
T2 construct: expressed in transfected cells

[4] = target: T3, dopamine transporter (DAT) (Homo sapiens, UniProt Q01959); assay: Fluorescent substrate uptake inhibition, DAT; assay type: cell-based; settings: 10 μM, CHO cells expressing DAT
T3 construct: expressed in transfected cells; host or cells: CHO (uptake)

[5] = RLM stability (High Activity); assay type: in vitro ADME, Sprague Dawley rats
Protocol: (§1) RLM Stability (High Activity). Pooled RLM from male Sprague Dawley rats (XenoTech R1000, lot #1910100) were used. Microsomal incubations were carried out in 96-well plates in 5 aliquots of 40 μL each (one for each time point). Liver microsomal incubation medium consisted of PBS (100 mM, pH 7.4), MgCl2 (3.3 mM), NADPH (3 mM), glucose-6-phosphate (5.3 mM), and glucose-6-phosphate dehydrogenase (0.67 units/mL), with 1.0 mg of liver microsomal protein per mL. Control incubations were performed by replacing the NADPH-cofactor system with PBS. Test compounds (1 μM, final solvent concentration 1.6%) were incubated with microsomes at 37° C., shaking at 100 rpm. Incubations were performed in duplicate. Five time points over 60 minutes were analyzed. The reactions were stopped by adding 9 volumes of 90% acetonitrile-water to incubation aliquots, followed by protein sedimentation by centrifugation at 5500 rpm for 3 minutes. Supernatants were analyzed for parent compound remaining using a fit-for-purpose liquid chromatography-tandem mass spectrometry (LC-MS/MS) method, with authentic samples of each analyte used for identity confirmation.
Data Analysis. The elimination constant (kel), half-life (t1/2) and intrinsic clearance (Clint) were determined in a plot of […] versus time, using linear regression analysis.

[6] = target: T4, norepinephrine transporter (NET) (Homo sapiens, UniProt P23975); assay: Fluorescent substrate uptake inhibition, NET; assay type: cell-based; settings: 10 μM, HEK293 cells expressing NET
T4 construct: expressed in transfected cells; host or cells: HEK293

[7] = Formation of metabolites 11R/11S in RLM (High Activity conditions); assay type: in vitro ADME, Sprague Dawley rats; settings: LC-MS/MS
Protocol: as §1, with “The reactions were stopped by adding 9 volumes of 90% acetonitrile-water to incubation aliquots, followed by protein sedimentation by centrifugation at 5500 rpm for 3 minutes.” left out
This condition was also used for experiments measuring the formation of metabolite 11R from compounds 14R and 88R and formation of metabolite 11S from compounds 14S and 88S. The concentrations of 11R and 11S formed during the incubations were quantified using a fit-for-purpose liquid chromatography-tandem mass spectrometry (LC-MS/MS) method, with authentic samples of each analyte used for calibration and identity confirmation.

[8] = target: MK-801 binding site of the N-methyl-D-aspartate receptor (NMDAR); assay: NMDAR radioligand binding with [3H]MK-801, Method B; set-up: species or system Sprague Dawley rat; settings: MK-801 site, Method B, male Sprague Dawley rat cortex, 5.0 nM [3H]MK-801; read-out: NMDAR Ki ± SEM
Protocol: Radioligand Binding—Method B. Affinity of the test compounds for NMDAR was determined in radioligand binding experiments with [^3H]MK-801 by WuXi AppTec (Hong Kong) Limited, under the conditions described in Table 13.

[9] = MLM stability (High Activity); assay type: in vitro ADME, BALB/c mice; settings: male, BALB/c, mouse, liver microsomes, pH 7.4, Condition 2 (High Activity), 1.0 mg protein/mL
Summary of the method: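 Pooled male BALB/c mouse liver microsomes (1.0 mg/mL) in 100 mM PBS pH 7.4 with NADPH-regenerating system; compound 1 μM, 37 °C, five time points over 60 min, duplicate; NADPH-free controls. Parent remaining by LC-MS/MS; kel, t1/2 and Clint from linear regression of ln(AUC) versus time.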

[10] = tested on: T5, monoamine transporters, MATs (SERT, NET, DAT, VMAT2); assay: Monoamine uptake inhibition, monoamine transporters collectively; assay type: cell-based; settings: uptake inhibition
T5 construct: rows headed: activity at MATs; stably transfected cells expressing the MAT of interest (HEK293 cells for SERT and NET)
Protocol: The ability of the compounds of the present invention to inhibit uptake of monoamines by the serotonin transporter (SERT), norepinephrine transporter (NET), dopamine transporter (DAT), and vesicular monoamine transporter 2 (VMAT2) (collectively monoamine transporters, MATs) was measured using fluorescent substrate uptake assays in transfected cells (Table 14). The binding affinities of select compounds were also determined in radioligand displacement assays at SERT, NET, and/or DAT (Table 14).
Uptake Inhibition. The ability of test compounds to block monoamine uptake by SERT, NET, DAT, and VMAT2 was determined using the Neurotransmitter Transporter Uptake Assay Kit manufactured by Molecular Devices (Cat #R8173). Briefly, stably transfected cells expressing the MAT of interest (HEK293 cells for SERT and NET; CHO cells for DAT) were grown and plated into 384-well plates at a concentration of 20,000 cells per well. Plates were then incubated for 16-20 h at 37° C. and 5% CO2. The medium was then aspirated and replaced with 25 μL of assay buffer (20 mM HEPES in HBSS, containing 0.1% BSA) containing the test compounds at the appropriate concentrations. Plates were then centrifuged at 300 rpm for 15 s and then incubated at 37° C. for 30 minutes. At this time, 25 μL of the proprietary fluorescent dye solution was added, the plates were incubated at 37° C. for 60 minutes, and then fluorescence was quantified on a plate reader (excitation wavelength=440 nm, emission wavelength=520 nm). The proprietary dye solution contains a mixture of 1) a fluorescent dye that mimics the endogenous substrates of MATs and is thereby actively transported to the intracellular compartment in the absence of an inhibitor and 2) a masking dye that inhibits the fluorescence of dye 1 in the extracellular compartment. Therefore, the overall fluorescence of the system increases as the fluorescent dye is transported into the cells.

[11] = male, Sprague Dawley, rat, liver microsomes, pH 7.4, Condition 2 (High Activity), 1 μM, 1.0 mg protein/mL

T1 sequence (P31645 whole entry, species assumed): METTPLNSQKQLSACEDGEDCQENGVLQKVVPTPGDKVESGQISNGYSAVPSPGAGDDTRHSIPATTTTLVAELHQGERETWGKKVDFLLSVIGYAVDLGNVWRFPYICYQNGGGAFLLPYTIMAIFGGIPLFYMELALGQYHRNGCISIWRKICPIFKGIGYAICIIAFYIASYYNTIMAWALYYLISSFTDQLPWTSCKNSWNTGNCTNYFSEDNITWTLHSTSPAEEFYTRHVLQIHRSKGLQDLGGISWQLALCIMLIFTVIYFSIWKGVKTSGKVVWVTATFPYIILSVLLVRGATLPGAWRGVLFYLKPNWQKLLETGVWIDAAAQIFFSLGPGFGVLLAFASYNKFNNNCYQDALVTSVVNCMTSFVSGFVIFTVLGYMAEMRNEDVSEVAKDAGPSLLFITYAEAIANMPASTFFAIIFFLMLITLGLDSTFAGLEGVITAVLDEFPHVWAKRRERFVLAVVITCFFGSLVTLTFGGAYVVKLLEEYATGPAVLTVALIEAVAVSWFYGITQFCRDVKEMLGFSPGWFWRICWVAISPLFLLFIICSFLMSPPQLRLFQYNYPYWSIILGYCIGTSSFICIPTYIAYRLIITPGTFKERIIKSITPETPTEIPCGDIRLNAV
T2 sequence (Q05940 whole entry, species assumed): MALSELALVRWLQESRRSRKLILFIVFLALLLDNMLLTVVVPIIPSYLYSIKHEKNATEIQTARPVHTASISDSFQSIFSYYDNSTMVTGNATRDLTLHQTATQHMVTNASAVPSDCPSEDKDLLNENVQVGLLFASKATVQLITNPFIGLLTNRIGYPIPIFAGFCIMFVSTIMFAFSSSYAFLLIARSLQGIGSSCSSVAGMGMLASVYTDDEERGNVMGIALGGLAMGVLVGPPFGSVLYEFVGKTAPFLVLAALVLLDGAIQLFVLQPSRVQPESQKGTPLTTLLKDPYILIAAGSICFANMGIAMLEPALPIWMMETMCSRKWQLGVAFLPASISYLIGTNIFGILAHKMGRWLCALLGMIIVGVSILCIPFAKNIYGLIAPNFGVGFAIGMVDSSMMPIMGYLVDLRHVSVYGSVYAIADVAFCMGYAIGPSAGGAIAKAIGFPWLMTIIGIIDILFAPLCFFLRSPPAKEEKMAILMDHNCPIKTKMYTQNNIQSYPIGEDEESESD
T3 sequence (Q01959 whole entry, species assumed): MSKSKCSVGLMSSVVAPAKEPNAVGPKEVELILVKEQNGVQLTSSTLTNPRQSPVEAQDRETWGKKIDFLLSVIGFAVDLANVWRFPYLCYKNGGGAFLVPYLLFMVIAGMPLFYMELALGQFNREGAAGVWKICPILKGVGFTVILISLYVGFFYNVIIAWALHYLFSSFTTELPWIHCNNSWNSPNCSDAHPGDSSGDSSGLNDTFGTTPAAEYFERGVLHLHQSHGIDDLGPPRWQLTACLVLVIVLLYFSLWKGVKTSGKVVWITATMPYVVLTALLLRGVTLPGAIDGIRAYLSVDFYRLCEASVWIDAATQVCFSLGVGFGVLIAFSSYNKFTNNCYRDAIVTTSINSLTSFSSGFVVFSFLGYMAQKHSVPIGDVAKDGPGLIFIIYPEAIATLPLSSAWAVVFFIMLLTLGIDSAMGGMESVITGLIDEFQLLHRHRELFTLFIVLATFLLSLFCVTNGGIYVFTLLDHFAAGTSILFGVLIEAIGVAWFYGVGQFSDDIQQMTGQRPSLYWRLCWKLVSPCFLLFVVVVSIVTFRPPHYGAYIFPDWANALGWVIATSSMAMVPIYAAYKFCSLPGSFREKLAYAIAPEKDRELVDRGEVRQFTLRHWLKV
T4 sequence (P23975 whole entry, species assumed): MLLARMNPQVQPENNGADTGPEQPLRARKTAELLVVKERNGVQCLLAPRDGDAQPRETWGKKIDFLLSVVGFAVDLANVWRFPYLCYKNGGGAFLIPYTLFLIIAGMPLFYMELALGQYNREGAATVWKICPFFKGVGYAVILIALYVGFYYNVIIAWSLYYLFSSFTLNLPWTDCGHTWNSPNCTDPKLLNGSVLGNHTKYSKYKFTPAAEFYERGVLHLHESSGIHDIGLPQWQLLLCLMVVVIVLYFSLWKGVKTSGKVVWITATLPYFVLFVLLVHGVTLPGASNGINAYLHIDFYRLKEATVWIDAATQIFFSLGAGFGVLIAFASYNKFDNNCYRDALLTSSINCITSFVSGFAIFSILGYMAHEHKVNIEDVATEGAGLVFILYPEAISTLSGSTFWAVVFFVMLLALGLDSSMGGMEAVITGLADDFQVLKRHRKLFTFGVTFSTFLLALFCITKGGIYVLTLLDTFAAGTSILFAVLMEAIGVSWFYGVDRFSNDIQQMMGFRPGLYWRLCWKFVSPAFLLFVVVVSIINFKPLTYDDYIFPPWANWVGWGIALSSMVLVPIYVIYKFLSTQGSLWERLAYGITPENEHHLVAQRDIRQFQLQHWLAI

| SMILES | half-life at 1 μM [1] [h] | microsomal CLint at 1 μM [1] [µL/min/mg] | inhibition at 10 µM [2] [%] | inhibition at 10 µM [3] [%] | inhibition at 10 µM [4] [%] | metabolic stability compared to non-deuterated counterparts 14R and 14S ([5]; High Activity) | half-life at 1 μM [5, 11] [h] | microsomal CLint at 1 μM [5, 11] [µL/min/mg] | inhibition at 10 µM [6] [%] | formation of metabolites 11R and 11S compared to non-deuterated counterparts [7] | Ki [8] [nM] | half-life at 1 μM [9] [h] | microsomal CLint at 1 μM [9] [µL/min/mg] | activity at MATs [10] |
| --- | --- | --- | --- | --- | --- | --- | --- | --- | --- | --- | --- | --- | --- | --- |
| [2H]C([2H])([2H])N[C@]1(c2ccccc2)CCCCC1=O [Compound 88S, (S)-2-((methyl-d3)amino)-2-phenylcyclohexan-1-one] | 2.78 | 4 | 28.2 | -6 | 18.6 | increased metabolic stability | 0.88 | 13 | 21.6 | attenuated formation; also recorded: decreased formation | 800 | 1.86 | 6 |  |
| O=C1CCCCC1(c1ccccc1)N1CCOCC1 (centres unmarked) [Compound 31] |  |  |  |  |  |  |  |  |  |  |  |  |  | almost no activity |
